# Test results: ChEMBL document CHEMBL4765227, “Hit to lead optimization of a series of N-[4-(1,3-benzothiazol-2-yl)phenyl]acetamides as monoacylglycerol lipase inhibitors with potential anticancer activity” (Eur J Med Chem, 2016)
# Assays:
# Assay type in all cases: functional
# Details in all cases: read-out: GI
# [1] = test system: Hs-578T; assay: Growth inhibition of human Hs-578T cells at 10 uM incubated for 48 hrs by sulforhodamine B assay relative to control
# [2] = test system: OVCAR-8; assay: Growth inhibition of human OVCAR-8 cells at 10 uM incubated for 48 hrs by sulforhodamine B assay relative to control
# [3] = test system: U-251; assay: Growth inhibition of human U-251 cells at 10 uM incubated for 48 hrs by sulforhodamine B assay relative to control
# [4] = test system: SF-539; assay: Growth inhibition of human SF-539 cells at 10 uM incubated for 48 hrs by sulforhodamine B assay relative to control
# [5] = test system: HL-60(TB); assay: Growth inhibition of human HL-60(TB) cells at 10 uM incubated for 48 hrs by sulforhodamine B assay relative to control
# [6] = test system: HOP-62; assay: Growth inhibition of human HOP-62 cells at 10 uM incubated for 48 hrs by sulforhodamine B assay relative to control
# [7] = test system: SN12C; assay: Growth inhibition of human SN12C cells at 10 uM incubated for 48 hrs by sulforhodamine B assay relative to control
# [8] = test system: UO-31; assay: Growth inhibition of human UO-31 cells at 10 uM incubated for 48 hrs by sulforhodamine B assay relative to control
# [9] = test system: SR; assay: Growth inhibition of human SR cells at 10 uM incubated for 48 hrs by sulforhodamine B assay relative to control
# [10] = test system: MDA-MB-468; assay: Growth inhibition of human MDA-MB-468 cells at 10 uM incubated for 48 hrs by sulforhodamine B assay relative to control
# [11] = test system: SK-MEL-2; assay: Growth inhibition of human SK-MEL-2 cells at 10 uM incubated for 48 hrs by sulforhodamine B assay relative to control
# [12] = test system: PC-3; assay: Growth inhibition of human PC-3 cells at 10 uM incubated for 48 hrs by sulforhodamine B assay relative to control
# [13] = test system: MOLT-4; assay: Growth inhibition of human MOLT-4 cells at 10 uM incubated for 48 hrs by sulforhodamine B assay relative to control
# [14] = test system: SF-295; assay: Growth inhibition of human SF-295 cells at 10 uM incubated for 48 hrs by sulforhodamine B assay relative to control
compound,measurement,setting,value
O=C(CN1CCOCC1)Nc1ccc(-c2nc3ccccc3s2)cc1,inhibition of growth at 10 µM,[1],-9.77%
same,inhibition of growth at 10 µM,[2],-2.44%
same,inhibition of growth at 10 µM,[3],10.5%
same,inhibition of growth at 10 µM,[4],10.3%
same,inhibition of growth at 10 µM,[5],-0.57%
same,inhibition of growth at 10 µM,[6],-6.41%
same,inhibition of growth at 10 µM,[7],-1.02%
same,inhibition of growth at 10 µM,[8],4.97%
same,inhibition of growth at 10 µM,[9],-2.12%
same,inhibition of growth at 10 µM,[10],107%
same,inhibition of growth at 10 µM,[11],-14.6%
same,inhibition of growth at 10 µM,[12],6.98%
same,inhibition of growth at 10 µM,[13],0.57%
same,inhibition of growth at 10 µM,[14],1.81%
O=C(CNC1CCCCC1)Nc1ccc(-c2nc3ccccc3s2)cc1,inhibition of growth at 10 µM,[1],15.8%
same,inhibition of growth at 10 µM,[2],0.73%
same,inhibition of growth at 10 µM,[3],34.9%
same,inhibition of growth at 10 µM,[4],12.5%
same,inhibition of growth at 10 µM,[5],33.2%
same,inhibition of growth at 10 µM,[6],14.8%
same,inhibition of growth at 10 µM,[7],13.3%
same,inhibition of growth at 10 µM,[8],43.5%
same,inhibition of growth at 10 µM,[9],90.3%
same,inhibition of growth at 10 µM,[10],64.1%
same,inhibition of growth at 10 µM,[11],-4.63%
same,inhibition of growth at 10 µM,[12],20.3%
same,inhibition of growth at 10 µM,[13],45.9%
same,inhibition of growth at 10 µM,[14],14.1%
COc1ccc(NCC(=O)Nc2ccc(-c3nc4ccccc4s3)cc2)cc1,inhibition of growth at 10 µM,[1],2.83%
same,inhibition of growth at 10 µM,[2],4.93%
same,inhibition of growth at 10 µM,[3],19.1%
same,inhibition of growth at 10 µM,[4],3.41%
same,inhibition of growth at 10 µM,[5],20.9%
same,inhibition of growth at 10 µM,[6],14.6%
same,inhibition of growth at 10 µM,[7],5.87%
same,inhibition of growth at 10 µM,[8],28.1%
same,inhibition of growth at 10 µM,[9],15.6%
same,inhibition of growth at 10 µM,[10],5.6%
same,inhibition of growth at 10 µM,[11],-15.7%
same,inhibition of growth at 10 µM,[12],12.9%
same,inhibition of growth at 10 µM,[13],33.7%
same,inhibition of growth at 10 µM,[14],3.2%
O=C(CN1CCCCC1)Nc1ccc(-c2nc3ccccc3s2)cc1,inhibition of growth at 10 µM,[1],12.6%
same,inhibition of growth at 10 µM,[2],-3.73%
same,inhibition of growth at 10 µM,[3],22.8%
same,inhibition of growth at 10 µM,[4],-0.41%
same,inhibition of growth at 10 µM,[5],15.8%
same,inhibition of growth at 10 µM,[6],7.87%
same,inhibition of growth at 10 µM,[7],6.04%
same,inhibition of growth at 10 µM,[8],6.94%
same,inhibition of growth at 10 µM,[9],56%
same,inhibition of growth at 10 µM,[10],73.7%
same,inhibition of growth at 10 µM,[11],-7.06%
same,inhibition of growth at 10 µM,[12],15.5%
same,inhibition of growth at 10 µM,[13],14.3%
same,inhibition of growth at 10 µM,[14],4.43%
O=C(CNCc1ccccc1)Nc1ccc(-c2nc3ccccc3s2)cc1,inhibition of growth at 10 µM,[1],-4.26%
same,inhibition of growth at 10 µM,[2],-1.99%
same,inhibition of growth at 10 µM,[3],18.6%
same,inhibition of growth at 10 µM,[4],17.8%
same,inhibition of growth at 10 µM,[5],3.9%
same,inhibition of growth at 10 µM,[6],-6.53%
same,inhibition of growth at 10 µM,[7],5.25%
same,inhibition of growth at 10 µM,[8],20.5%
same,inhibition of growth at 10 µM,[9],21.3%
same,inhibition of growth at 10 µM,[10],73.3%
same,inhibition of growth at 10 µM,[11],-7.25%
same,inhibition of growth at 10 µM,[12],19.1%
same,inhibition of growth at 10 µM,[13],12%
same,inhibition of growth at 10 µM,[14],6.24%
O=C(CNc1ccccc1)Nc1ccc(-c2nc3ccccc3s2)cc1,inhibition of growth at 10 µM,[1],-8.46%
same,inhibition of growth at 10 µM,[2],9.58%
same,inhibition of growth at 10 µM,[3],14.8%
same,inhibition of growth at 10 µM,[4],12%
same,inhibition of growth at 10 µM,[5],11%
same,inhibition of growth at 10 µM,[6],-12%
same,inhibition of growth at 10 µM,[7],8.85%
same,inhibition of growth at 10 µM,[8],30.2%
same,inhibition of growth at 10 µM,[9],74.5%
same,inhibition of growth at 10 µM,[10],29.5%
same,inhibition of growth at 10 µM,[11],-4.93%
same,inhibition of growth at 10 µM,[12],10.1%
same,inhibition of growth at 10 µM,[13],84.5%
same,inhibition of growth at 10 µM,[14],7.06%
NS(=O)(=O)c1ccc(NCC(=O)Nc2ccc(-c3nc4ccccc4s3)cc2)cc1,inhibition of growth at 10 µM,[1],1.67%
same,inhibition of growth at 10 µM,[2],17.3%
same,inhibition of growth at 10 µM,[3],28.7%
same,inhibition of growth at 10 µM,[4],8.62%
same,inhibition of growth at 10 µM,[5],66.6%
same,inhibition of growth at 10 µM,[6],-17.8%
same,inhibition of growth at 10 µM,[7],52.2%
same,inhibition of growth at 10 µM,[8],25.6%
same,inhibition of growth at 10 µM,[9],84%
same,inhibition of growth at 10 µM,[10],95.7%
same,inhibition of growth at 10 µM,[11],12.2%
same,inhibition of growth at 10 µM,[12],35.3%
same,inhibition of growth at 10 µM,[13],93.8%
same,inhibition of growth at 10 µM,[14],1.17%
